Measurements reported in US20250002533A1, “PEPTIDE AND ITS USES” (INSTYTUT MEDYCYNY DOSW[…] […].MIROSLAWA MOSS[…] AKADEMII …, priority 2021, published 2025).

How the values were obtained:
rats = conditions: cited from earlier work
mu opioid receptor (MOR) = conditions: depending on the route of administration and the assay measuring analgesia; cited from earlier work
[1] = cited from earlier work
acute pain model in rats = assay: Analgesic effect (% MPE) after subarachnoid (i.t.) administration in an acute pain model in rats; type: in vivo, rat
[2] = test system: rats with induced neuropathic pain; assay: Chronic constriction injury (CCI) neuropathic pain model, von Frey test, central (subarachnoid) administration; type: in vivo, rat
Experimental: In the next step of the study, the peptide was administered by the central (subarachnoid) route to rats with induced neuropathic pain (the model of neuropathic pain of loose ligation of the sciatic nerve according to Bennett [Bennett and Xie, 1988]) according to the method described by Yaksh & Rudy (Yaksh T. R., Rudy T. A., Physiol Behav. 17:1031-1036 (1976). In the first step, the level of pain experienced by rats with chronic pain was determined in comparison to healthy rats. The results of the test are shown in FIG. 5. The behavioral test consisted of measuring the level of allodynia on the pelvic, “sick” limb, where the time or strength of the irritating stimulus acting on the bottom of the foot were tested.
In the main test of the analgesic effect of the tested peptide, a single dose of the peptide was administered by the central route at predetermined time intervals. To that end, the compound was dissolved in physiological saline solution and administered by a Hamilton syringe to the rats on days 0, 4, 7, 14 of the experiment. Earlier studies let to establish that in our case, the effective dose of peptide for rats is 2.0 nmol/kg.
In the treatment of chronic pain, pharmacotherapy is based on repeated administration of the active substance, which is often associated with the occurrence of the tolerance and undesired side effects. Therefore, in the next step of the study, the analgesic compound was administered to the rats daily for a period of 14 days, FIG. 7.

[3] = daily i.t. administration for 14 days

C[C@@H](NC(=O)[C@@H](N)Cc1ccc(O)cc1)C(=O)NCC(=O)N[C@@H](Cc1ccccc1)C(=O)NNC(=O)[C@H](Cc1ccccc1)NC(=O)CNC(=O)[C@@H](C)NC(=O)[C@@H](N)Cc1ccc(O)cc1 [biphalin]
effect after intravenous administration relative to morphine (rats; animals, intravenous): corresponds to doses of morphine
activity relative to morphine after administration into the subarachnoid space (rats; rats, intrathecal): more than one thousand times more active than morphine

C[C@@H](NC(=O)[C@@H](N)Cc1ccc(O)cc1)C(=O)N[C@@H](Cc1ccccc1)C(=O)NCC(=O)N[C@@H](Cc1ccc(O)cc1)C(=O)N1CCC[C@H]1C(=O)N[C@@H](CO)C(N)=O [dermorphin, Dermorphin]
potency relative to morphine (mu opioid receptor (MOR)): 750-2200 times
known stability in human or rat serum [1]: 170 to 190 min

CN1CC[C@]23c4c5ccc(O)c4O[C@H]2[C@@H](O)C=C[C@H]3[C@H]1C5 [morphine, reference compound]
equipotent dose relative to that of the peptide according to the invention (acute pain model in rats; i.t.): approximately 100 times
dose producing an effect similar to the peptide according to the invention (acute pain model in rats; i.t., equipotent dose): 32.0 nmol/kg

C[C@@H](NC(=O)[C@H](CO)NC(=O)[C@@H]1CCCN1C(=O)[C@H](Cc1ccc(O)cc1)NC(=O)CNC(=O)[C@H](Cc1ccccc1)NC(=O)[C@@H](C)NC(=O)[C@@H](N)Cc1ccc(O)cc1)C(=O)N[C@@H](Cc1ccccc1)C(=O)O [peptide according to the invention, H2N-Tyr-D-Ala-Gly-Phe-Gly-Tyr-Pro-Ser-D-Ala-Phe-OH]
analgesic effect at the threshold dose (acute pain model in rats; i.t., 0.004 nmol/kg): active at a low but noticeable level
duration of analgesic effect (acute pain model in rats; i.t., 0.04 nmol/kg): 30 min
duration of analgesic effect (acute pain model in rats; i.t., 0.08 nmol/kg): 60 min
activity in 60 and 120 min (acute pain model in rats; i.t., 0.08 nmol/kg and 0.4 nmol/kg, 60 and 120 min): 60-70 % MPE
analgesic potency compared to morphine (acute pain model in rats; i.t., FIGS. 1-3): definitely more potent than morphine
duration of maximum effects (acute pain model in rats; i.t., highest doses 0.08 nmol/kg and 0.4 nmol/kg): up to 30 min
analgesic effect compared to dermorphin at the lower dose (acute pain model in rats; subarachnoid, 0.04 nmol/kg, first 30 minutes): slightly higher in the first 30 minutes than for dermorphin
analgesic effect compared to dermorphin at the higher dose (acute pain model in rats; subarachnoid, 0.4 nmol/kg, first 30 minutes): equipotent for the first 30 minutes
analgesic potency compared to dermorphin (acute pain model in rats; subarachnoid, equivalent doses 0.04 and 0.4 nmol/kg): as potent as dermorphin
value of MPE maintained for 120 minutes after administration (acute pain model in rats; subarachnoid, higher dose 0.4 nmol/kg, 120 min): 40%
development of tolerance [2, 3]: did not develop tolerance
general condition / undesired side effects (weight loss, hyperalgesia to touch, vocalization, hair shedding) [2, 3]: in good general physical condition
hyperalgesia after long-term administration [2, 3]: did not induce hyperalgesia
analgesic effect, daily administration, fourteenth day ([2]; daily i.t. administration, day 14, versus control group): did not induce its analgesic effect
analgesic effect, daily administration, days 4 and 7 ([2]; daily i.t. administration, days 4 and 7, versus untreated group): highly analgesic
effective dose of peptide for rats ([2]; rats, CCI model, central route): 2.0 nmol/kg
analgesic effect, single dose ([2]; single dose i.t. on days 0, 4, 7, 14, result on days 4, 7 and 14 of pain induction, 2.0 nmol/kg): highly analgesic
